Experimental data from ChEMBL document CHEMBL1201862, “PubChem BioAssay data set” (2004).
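Briefly, cells in 96-well plates were exposed to five compound concentrations for 48 h, and endpoints were estimated by linear interpolation. Abbreviation: GI50, concentration required for 50% inhibition of growth.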 Active and inactive are the calls of the source. No stated cut-off is given here; in the data, active = GI50 up to about 1.1 µM and inactive = higher. Where a SMILES comes first, the peptide text is derived from it. The star is where a group is joined. Boc = CC(C)(C)OC(=O)*; OBn = c1ccc(CO*)cc1

What was measured:
Experiment in all cases: NCI tumour cell line growth inhibition, 48 h
[1] = tested on: A498
[2] = tested on: SF-295
[3] = tested on: OVCAR-4
[4] = tested on: SW-620
[5] = tested on: SF-268
[6] = tested on: UO-31
[7] = tested on: Hs-578T
[8] = tested on: LOX IMVI
[9] = tested on: HOP-62
[10] = tested on: K562
[11] = tested on: M14
[12] = tested on: HCC 2998
[13] = tested on: SN12C
[14] = tested on: UACC-62
[15] = tested on: HOP-92
[16] = tested on: SNB-75
[17] = tested on: BT-549
[18] = tested on: OVCAR-3
[19] = tested on: KM12
[20] = tested on: MOLT-4

Measured: GI50

O=P(O)(O)OC1O[C@H](CO)[C@H](O)[C@H](O)[C@H]1O (stereo partly specified)
inactive: [1] > 100 µM | [2] > 100 µM | [3] > 100 µM | [4] > 100 µM | [5] > 100 µM | [6] > 100 µM | [7] > 100 µM | [8] > 100 µM | [9] > 100 µM | [10] > 100 µM | [11] > 100 µM | [12] > 100 µM | [13] > 100 µM | [14] > 100 µM | [15] > 100 µM | [16] > 100 µM | [17] > 100 µM | [18] > 100 µM | [19] > 100 µM

CC(=N\N=C\c1ccccn1)/C(C)=N/N=C(C)/C(C)=N/N=C(C)/C(C)=N/N=C/c1ccccn1
inactive: [1] > 100 µM | [2] > 100 µM | [3] > 100 µM | [4] > 100 µM | [5] > 100 µM | [6] > 100 µM | [7] > 100 µM | [20] > 100 µM | [8] > 100 µM | [9] > 100 µM | [10] > 100 µM | [11] > 100 µM | [12] > 100 µM | [13] > 100 µM | [15] > 100 µM | [16] > 100 µM | [17] > 100 µM | [18] > 100 µM | [19] > 100 µM

CC1(C)CC2=C(Sc3ccccc3N2)C(=O)C1C(=O)C(=O)Nc1cc(Cl)ccc1Cl (stereo unspecified)
inactive: [1] > 100 µM | [2] > 100 µM | [3] 30.1 µM | [4] > 100 µM | [5] > 100 µM | [6] > 100 µM | [7] > 100 µM | [20] 60 µM | [8] > 100 µM | [10] > 100 µM | [11] > 100 µM | [12] > 100 µM | [13] > 100 µM | [14] > 100 µM | [15] > 100 µM | [16] 38.2 µM | [17] > 100 µM | [18] > 100 µM | [19] > 100 µM

CCOC(=O)C1CCCCc2sc(N)c(C#N)c21 (stereo unspecified)
inactive: [1] > 100 µM | [4] > 100 µM | [6] > 100 µM | [7] > 100 µM | [20] > 100 µM | [9] > 100 µM | [10] > 100 µM | [11] > 100 µM | [12] > 100 µM | [13] > 100 µM | [14] > 100 µM | [15] > 100 µM | [16] > 100 µM | [17] > 100 µM | [19] > 100 µM

O=C(C(Cl)=C(N1CCOCC1)N1CCOCC1)C(Cl)Cl
inactive: [1] > 100 µM | [3] > 100 µM | [4] > 100 µM | [5] > 100 µM | [6] > 100 µM | [7] > 100 µM | [20] > 100 µM | [8] > 100 µM | [9] > 100 µM | [10] > 100 µM | [11] > 100 µM | [12] > 100 µM | [13] > 100 µM | [14] > 100 µM | [15] > 100 µM | [17] > 100 µM | [18] > 100 µM | [19] > 100 µM

COc1ccc(CNc2nc3ccccc3nc2C(=O)O)cc1
inactive: [1] > 100 µM | [2] 51.4 µM | [4] > 100 µM | [5] > 100 µM | [6] 39 µM | [7] > 100 µM | [20] > 10 µM | [8] 45.4 µM | [9] > 100 µM | [10] 93.3 µM | [11] > 100 µM | [12] > 100 µM | [13] > 100 µM | [14] > 100 µM | [15] 70.5 µM | [16] 93.8 µM | [17] > 100 µM | [18] > 100 µM | [19] 65.6 µM

COc1cc(COC(=O)N2CCC2C(=O)O)c([N+](=O)[O-])cc1OC (stereo unspecified)
inactive: [1] > 100 µM | [2] > 100 µM | [4] > 100 µM | [5] > 100 µM | [6] > 100 µM | [7] > 100 µM | [20] > 100 µM | [9] > 100 µM | [10] > 100 µM | [11] > 100 µM | [12] > 100 µM | [13] > 100 µM | [14] > 100 µM | [15] > 100 µM | [16] > 100 µM | [17] > 100 µM | [18] > 100 µM | [19] > 100 µM

c1ccc2c(-c3ccnc(-c4c[nH]c5ccccc45)n3)c[nH]c2c1
inactive: [1] 2.23 µM | [2] 2.93 µM | [3] 8.69 µM | [4] 4.86 µM | [5] 10.6 µM | [6] 3.98 µM | [7] 2.81 µM | [20] 1.87 µM | [8] 2.82 µM | [9] 10.4 µM | [10] 4.13 µM | [11] 1.99 µM | [12] 2.79 µM | [13] 2.78 µM | [14] 1.95 µM | [15] 1.7 µM | [17] > 100 µM | [18] 6.4 µM | [19] 3.94 µM

CCC(=O)NCC1CCCN2CCCCC12 (stereo unspecified)
inactive: [1] > 100 µM | [2] > 100 µM | [3] > 100 µM | [4] > 100 µM | [5] > 100 µM | [6] > 100 µM | [7] > 100 µM | [20] > 100 µM | [8] > 100 µM | [10] > 100 µM | [12] > 100 µM | [13] > 100 µM | [14] > 100 µM | [15] > 100 µM | [16] > 100 µM | [17] > 100 µM | [19] > 100 µM

Cc1cc(S(=O)(=O)Nc2cc(N)n[nH]2)c(SCc2nc(N)nc(N(C)C)n2)cc1Cl
inactive: [1] > 10 µM | [2] > 10 µM | [3] > 10 µM | [4] > 10 µM | [5] > 10 µM | [6] > 10 µM | [7] > 10 µM | [20] > 10 µM | [8] > 10 µM | [9] > 10 µM | [10] > 10 µM | [11] > 10 µM | [12] > 10 µM | [13] > 10 µM | [15] > 10 µM | [16] > 10 µM | [17] > 10 µM | [18] > 10 µM | [19] > 10 µM

CC(NC(=O)C(Cc1ccccc1)NC(=O)C(Cc1ccccc1)NC(=O)OC(C)(C)C)C(=O)OCc1ccccc1 (stereo not drawn) (Boc-Phe-Phe-Ala-OBn; configuration not given here)
inactive: [1] > 100 µM | [2] 43.5 µM | [4] > 100 µM | [5] > 100 µM | [6] 27.7 µM | [7] 73.3 µM | [20] 54.7 µM | [8] > 100 µM | [9] > 100 µM | [10] 64.3 µM | [11] 48.4 µM | [12] 54.2 µM | [13] > 100 µM | [14] 49.4 µM | [15] 20.4 µM | [16] 50.8 µM | [17] > 100 µM | [18] > 100 µM | [19] > 100 µM
